From paper PMC7011973 (Journal of Enzyme Inhibition and Medicinal Chemistry, 2017)

Columns and labels:
BsuCA1 (BsCA1) = type: biochemical, Brucella suis; conditions: read-out: KI (nM) ^* / BsuCA1^b
BsuCA2 (BsCA2) = type: biochemical, Brucella suis; conditions: read-out: KI (nM) ^* / BsuCA2^b

SMILES	Ki (BsuCA1 (BsCA1)) [nM]	Ki (BsuCA2 (BsCA2)) [nM]
NS(=O)(=O)c1cnccc1N1CCN(Cc2ccccc2)CC1 [compound 10, 10]	34	97
NS(=O)(=O)c1cnccc1N1CCC(Cc2ccccc2)CC1 [compound 12, 12]	40	
NS(=O)(=O)c1cnccc1N1CCN(Cc2ccc3c(c2)OCO3)CC1 [compound 11, 11]	36	336
CCc1cc(CC)n(-c2ccncc2S(N)(=O)=O)n1 [compound 17, 17]		420
CCOC(=O)CCc1c(C)nn(-c2ccncc2S(N)(=O)=O)c1C [compound 16, 16]	41	706
Cc1nn(-c2ccncc2S(N)(=O)=O)c(C)c1C [compound 14, 14]	45	
Cc1cc(C)n(-c2ccncc2S(N)(=O)=O)n1 [compound 13, 13]	38	780
CCCCc1c(C)nn(-c2ccncc2S(N)(=O)=O)c1C [compound 15, 15]	47	
